Laboratory results from patent US20120277209A1, “PYRAZINE COMPOUNDS AS PHOSPHODIESTERASE 10 INHIBITORS” (Amgen Inc., priority 2009, published 2012).
Where two headings read alike, the source gives them in different places.

Target: PDE10 (UniProt Q9Y233)
Assay: PDE10 enzyme inhibition, IMAP TR-FRET assay (MPDE10A7 Enzyme Activity and Inhibition)
Type: biochemical
Procedure, shortened: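 IMAP TR-FRET read-out of PDE10 hydrolysis of fluorescein-cAMP or -cGMP (60 min, room temperature), after a 30 min compound-enzyme preincubation. Enzyme source was PDE10A or tissue homogenate. Averaged IC50s are reported as five range classes.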

[1] = IC50 class against PDE10, read-out: IC50
[2] = PDE10 enzyme inhibition, average IC50 data for each compound, read-out: Average IC50

Row | SMILES | IC50 [1] [µM] | IC50 [2] [µM]
1 | Cc1cc(-c2nccnc2Oc2ccc(C(=O)c3nc4ccccc4[nH]3)cc2)ccn1 [Example 107, (1H-benzo[d]imidazol-2-yl)(4-(3-(2-methylpyridin-4-yl)pyrazin-2-yloxy)phenyl)methanone] | < 0.025 | –
2 | O=C(c1ccc(Oc2nccnc2OCC2CC2)cc1)c1nc2ccccc2[nH]1 [drawing 846] | – | 0.164
3 | Cc1ncccc1-c1nccnc1Oc1ccc(C(=O)c2nc3ccccc3[nH]2)cc1 [Example 109, (1H-benzo[d]imidazol-2-yl)(4-(3-(2-methylpyridin-3-yl)pyrazin-2-yloxy)phenyl)methanone] | 0.025 to 0.1 | –
4 | COC[C@@H]1CCCN1c1nccnc1Oc1ccc(Nc2nc3ccccc3s2)cc1 [drawing 719] | – | 0.00944
5 | Fc1cc(-c2nccnc2Oc2ccc(Nc3nc4ccccc4s3)c(F)c2)ccn1 [Example 158, N-(2-fluoro-4-(3-(2-fluoropyridin-4-yl)pyrazin-2-yloxy)phenyl)benzo[d]thiazol-2-amine] | 0.025 to 0.1 | –
